pIC50: −log10 of the molar value.
The molecules below were run against purified human recombinant CETP (Homo sapiens (Human), UniProt P11597) (assay: CETP Scintillation Proximity Assay). Conditions: CETP-dependent cholesterol ester transfer from 3H-CE/HDL to biotinylated LDL, 37° C.; read-out: CETP SPA IC50.
Chain of purified human recombinant CETP (P11597 18-493): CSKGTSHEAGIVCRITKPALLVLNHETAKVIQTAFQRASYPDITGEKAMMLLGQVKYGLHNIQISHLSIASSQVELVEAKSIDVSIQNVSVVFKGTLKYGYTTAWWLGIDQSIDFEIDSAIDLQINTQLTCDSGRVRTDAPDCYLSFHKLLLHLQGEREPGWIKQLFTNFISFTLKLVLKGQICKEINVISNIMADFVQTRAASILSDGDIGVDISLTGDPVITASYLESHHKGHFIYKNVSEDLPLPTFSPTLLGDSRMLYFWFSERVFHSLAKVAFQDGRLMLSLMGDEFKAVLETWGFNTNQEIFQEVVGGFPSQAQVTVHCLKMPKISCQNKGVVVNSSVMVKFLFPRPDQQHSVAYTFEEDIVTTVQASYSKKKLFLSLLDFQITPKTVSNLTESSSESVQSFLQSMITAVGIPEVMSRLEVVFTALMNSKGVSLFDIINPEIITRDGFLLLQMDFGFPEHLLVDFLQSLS
Format: biochemical
Procedure: CETP Scintillation Proximity Assay
Dilutions of compounds in DMSO (1 μl) are added to BD plates (#353232). To this is added 20 μl of a mixture containing ^3H-CE/HDL (0.15 μl), biotinylated LDL (˜5 μg protein/ml final concentration) and unlabeled HDL (16 μg/ml final concentration) in a buffer containing 50 mM HEPES, pH 7.4, 150 mM NaCl and 0.05% sodium azide. Reactions are initiated by the addition of 10 μl of buffer containing purified human recombinant CETP, and incubated at 37° C. At the end of the reaction, 60 μl of LEADseeker beads (#RPNQ0261, 2 mg/ml in buffer containing 1 mg/ml BSA and 0.05 mg protein/ml HDL) are added, the plates are covered and subsequently read. Background activity is determined in a set of wells that receive buffer but no CETP. The level of inhibition is determined by comparing the readings in wells that contain compound to the readings in control wells containing DMSO.
A pIC50 of 8.05 was found for O[C@H](CNC[C@@](Cc1ccccc1)(c1cc(F)cc(OC(F)(F)C(F)F)c1)c1ccc(Cl)cn1)C(F)(F)F (stereo in doubt) [Example 2, (R)-3-OR)-2-(5-chloropyridin-2-yl)-2-(3-fluoro-5-(1,1,2,2-tetrafluoroethoxy)phenyl)-3-phenylpropylamino)-1,1,1-trifluoropropan-2-ol] in this work. A pIC50 of 5.36 was found for O=C(NC[C@@](Cc1ccccc1)(c1cc(F)cc(C(F)(F)F)c1)c1ccc(F)cn1)[C@@](O)(c1ccccc1)C(F)(F)F [Example 5, (S)-3,3,3-trifluoro-N—((R)-2-(3-fluoro-5-(trifluoromethyl)phenyl)-2-(5-fluoropyridin-2-yl)-3-phenylpropyl)-2-hydroxy-2-phenylpropanamide] in this work. A pIC50 of 7.52 was found for O[C@H](CNC[C@@](Cc1ccccc1)(c1cc(F)cc(C(F)(F)F)c1)c1ccc(F)cn1)C(F)(F)F [Example 6, (R)-1,1,1-trifluoro-3-((R)-2-(3-fluoro-5-(trifluoromethyl)phenyl)-2-(5-fluoropyridin-2-yl)-3-phenylpropylamino)propan-2-ol] in this work. A pIC50 of 5.84 was found for O=C(NCC(Cc1ccccc1)(c1cccc(OC(F)(F)F)c1)c1cccc(OC(F)(F)F)c1)C1CC1(F)F (stereo not drawn) [Example 11, 2,2-difluoro-N-(3-phenyl-2,2-bis(3-(trifluoromethoxy)phenyl)propyl)cyclopropanecarboxamide] in this work. A pIC50 of 6.88 was found for O=C(NCC(F)(F)F)NCC(Cc1ccccc1)(c1cccc(OC(F)(F)F)c1)c1cccc(OC(F)(F)F)c1 [Example 27, 1-(3-phenyl-2,2-bis(3-(trifluoromethoxy)phenyl)propyl)-3-(2,2,2-trifluoroethyl)urea] in this work. A pIC50 of 6.87 was found for Cc1cc(CC(CNC[C@H](O)C(F)(F)F)(c2cccc(OC(F)(F)F)c2)c2cccc(OC(F)(F)F)c2)no1 [Example 43, (S)-1,1,1-trifluoro-3-(3-(5-methylisoxazol-3-yl)-2,2-bis(3-(trifluoromethoxy)phenyl)propylamino)propan-2-ol] in this work. A pIC50 of 7.72 was found for O[C@H](CNCC(Cc1ccccn1)(c1cccc(OC(F)(F)F)c1)c1cccc(OC(F)(F)F)c1)C(F)(F)F [Example 44, (R)-1,1,1-trifluoro-3-(3-(pyridin-2-yl)-2,2-bis(3-(trifluoromethoxy)phenyl)propylamino)propan-2-ol] in this work. A pIC50 of 5.55 was found for O[C@@H](CN(C[C@H](O)C(F)(F)F)CC(Cc1ccccc1)(c1cccc(OC(F)(F)F)c1)c1cccc(OC(F)(F)F)c1)C(F)(F)F [Example 45, (2S,2′S)-3,3′-(3-phenyl-2,2-bis(3-(trifluoromethoxy)phenyl)propylazanediyl)bis(1,1,1-trifluoropropan-2-ol)] in this work. A pIC50 of 7.85 was found for O[C@H](CNCC(Cc1ccccc1)(c1cccc(OC(F)(F)F)c1)c1cccc(OC(F)(F)F)c1)C(F)(F)F [Example 47, (R)-1,1,1-trifluoro-3-(3-phenyl-2,2-bis(3-(trifluoromethoxy)phenyl)propylamino)propan-2-ol] in this work. A pIC50 of 8.05 was found for Cc1ccc(CC(CNC[C@@H](O)C(F)(F)F)(c2cccc(OC(F)(F)F)c2)c2cccc(OC(F)(F)F)c2)cc1 [Example 50, (R)-1,1,1-trifluoro-3-(3-p-tolyl-2,2-bis(3-(trifluoromethoxy)phenyl)propylamino)propan-2-ol] in this work. A pIC50 of 7.60 was found for FC(F)(F)CCNCC(Cc1ccccc1)(c1cccc(OC(F)(F)F)c1)c1cccc(OC(F)(F)F)c1 [Example 53, 3,3,3-trifluoro-N-(3-phenyl-2,2-bis(3-(trifluoromethoxy)phenyl)propyl)propan-1-amine] in this work. A pIC50 of 6.74 was found for Oc1c(F)cccc1CNCC(Cc1ccccc1)(c1cccc(OC(F)(F)F)c1)c1cccc(OC(F)(F)F)c1 [Example 94, 2-fluoro-6-((3-phenyl-2,2-bis(3-(trifluoromethoxy)phenyl)propylamino)methyl)phenol] in this work. A pIC50 of 6.61 was found for FC(F)(F)Oc1cccc(C(CNc2ncc(N3CCOCC3)cn2)(Cc2ccccc2)c2cccc(OC(F)(F)F)c2)c1 [Example 112, 5-morpholino-N-(3-phenyl-2,2-bis(3-(trifluoromethoxy)phenyl)propyl)pyrimidin-2-amine] in this work. A pIC50 of 6.89 was found for O=S(=O)(CC(F)(F)F)NCC(Cc1ccccc1)(c1cccc(OC(F)(F)F)c1)c1cccc(OC(F)(F)F)c1 [Example 122, 2,2,2-trifluoro-N-(3-phenyl-2,2-bis(3-(trifluoromethoxy)phenyl)-propyl)ethanesulfonamide] in this work. A pIC50 of 5.96 was found for “isopropyl 3-phenyl-2,2-bis(3- (trifluoromethoxy)phenyl)- propylcarbamate [Example 133]” in this work.

From patent US9102599B2, “N-((3-benzyl)-2,2-(bis-phenyl)-propan-1-amine derivatives as CETP inhibitors for the treatment of atherosclerosis and cardiovascular diseases” (Bristol-Myers Squibb Company, priority 2006, dated 2015)
